Measured values from patent publication US20190151312A1, “HEPARAN SULFATE BIOSYNTHESIS INHIBITORS FOR THE TREATMENT OF DISEASES” (BioMarin Pharmaceutical Inc., priority 2014, published 2019).

Test system: GM01896 cells (MPS II dermal fibroblasts)
Assay: Assay 1: MPS cellular assay, MPS II (heparan sulfate disaccharide biomarkers by LC-MS)
Assay type: cell-based, human
Conditions: Homo sapiens, Fibroblast, Assay 1 for MPS II, heparan sulfate disaccharide biomarkers (I2a4, I2a6, I2S0 and/or I2S6), read-out: IC50 Range
In short: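 MPS II patient dermal fibroblasts (GM01896) treated with compound at ≤30 μM for 4 to 21 days. Heparan sulfate GAGs isolated by anion exchange, digested with heparinases I-III, aniline-tagged against [13C6]aniline standards and quantified by LC-MS; IC50 from curve fitting. Viability monitored by alamar blue or ATP.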

| Structure (SMILES) | IC50 |
| --- | --- |
| CNC(=O)c1ccc(Nc2cc(-c3ccc4c(c3)ncn4CCN(C)C)nc(N3CCOCC3)n2)cc1 [{4-[(6-{1-[2-(dimethylamino)ethyl]benzimidazol-5-yl}-2-morpholin-4-ylpyrimidin-4-yl)amino]phenyl}-N-methylcarboxamide] | 1000 to 5000 nM |
| Cc1cn(C)c2cc(Nc3cc(-c4ccc5c(CCN6CCOCC6)nn(C)c5c4)nc(N4CCOCC4)n3)ccc12 [(1,3-dimethylindol-6-yl){6-[1-methyl-3-(2-morpholin-4-ylethyl)(1H-indazol-6-yl)]-2-morpholin-4-ylpyrimidin-4-yl}amine] | 500 to 1000 nM |
| CNC(=O)c1ccc(Nc2cc(-c3ccc4cnn(CC5CC5)c4c3)nc(N3CCOCC3)n2)cc1 [[4-({6-[1-(cyclopropylmethyl)(1H-indazol-6-yl)]-2-morpholin-4-ylpyrimidin-4-yl}amino)phenyl]-N-methylcarboxamide] | < 500 nM |
| Cn1nc(CCN2CCOCC2)c2ccc(-c3cc(Nc4ccc(-c5c[nH]cn5)cc4)nc(N4CCOCC4)n3)cc21 [(4-imidazol-4-ylphenyl){6-[1-methyl-3-(2-morpholin-4-ylethyl)(1H-indazol-6-yl)]-2-morpholin-4-ylpyrimidin-4-yl}amine] | 1000 to 5000 nM |
| Cn1ccc2ccc(Nc3cc(-c4ccc5c(CCN6C(=O)c7ccccc7C6=O)nn(C)c5c4)nc(N4CCOCC4)n3)cc21 [2-[2-(1-methyl-6-{6-[(1-methylindol-6-yl)amino]-2-morpholin-4-ylpyrimidin-4-yl}-1H-indazol-3-yl)ethyl]benzo[c]azoline-1,3-dione] | 500 to 1000 nM |
| CNC(=O)c1ccc(Nc2cc(-c3ccc4c(cnn4C)c3)nc(N3CCOCC3)n2)cc1 [N-methyl(4-{[6-(1-methyl(1H-indazol-5-yl))-2-morpholin-4-ylpyrimidin-4-yl]amino}phenyl)carboxamide] | 500 to 1000 nM |
| Cc1nn(C)c2cc(-c3cc(Nc4ccc(-c5nnc[nH]5)cc4)nc(N4CCOCC4)n3)ccc12 [(4-(4H-1,2,4-triazol-3-yl)phenyl)[6-(1,3-dimethyl(1H-indazol-6-yl))-2-morpholin-4-ylpyrimidin-4-yl]amine] | < 500 nM |
| CN1CCN(Cc2nn(C)c3cc(-c4cc(Nc5ccc(Cl)cc5)nc(N5CCOCC5)n4)ccc23)CC1 [(4-chlorophenyl)(6-{1-methyl-3-[(4-methylpiperazinyl)methyl](1H-indazol-6-yl)}-2-morpholin-4-ylpyrimidin-4-yl)amine] | 500 to 1000 nM |
| COCCn1cnc2ccc(-c3cc(Nc4ccc(C(=O)OC)cc4)nc(N4CCOCC4)n3)cc21 [methyl 4-({6-[1-(2-methoxyethyl)benzimidazol-6-yl]-2-morpholin-4-ylpyrimidin-4-yl}amino)benzoate] | < 500 nM |
| Cc1c(C)n(C)c2cc(Nc3cc(-c4ccc5cnn(C)c5c4)nc(N4CCOCC4)n3)ccc12 [[6-(1-methyl(1H-indazol-6-yl))-2-morpholin-4-ylpyrimidin-4-yl](1,2,3-trimethylindol-6-yl)amine] | 1000 to 5000 nM |
| Cc1cnn(-c2ccc(Nc3cc(-c4ccc5c(CCN6CCOCC6)nn(C)c5c4)nc(N4CCOCC4)n3)cc2)n1 [[4-(4-methyl(1,2,3-triazol-2-yl))phenyl]{6-[1-methyl-3-(2-morpholin-4-ylethyl)(1H-indazol-6-yl)]-2-morpholin-4-ylpyrimidin-4-yl}amine] | < 500 nM |
| Clc1ccc(Nc2cc(-c3ccc4ncn(CCN5CCOCC5)c4c3)nc(N3CCOCC3)n2)cc1 [(4-chlorophenyl){2-morpholin-4-yl-6-[1-(2-morpholin-4-ylethyl)benzimidazol-6-yl]pyrimidin-4-yl}amine] | < 500 nM |
| Cn1ncc2ccc(-c3cc(Nc4ccc(-c5cnn[nH]5)cc4)nc(N4CCOCC4)n3)cc21 [(4-(1H-1,2,3-triazol-5-yl)phenyl)[6-(1-methyl(1H-indazol-6-yl))-2-morpholin-4-ylpyrimidin-4-yl]amine] | 1000 to 5000 nM |
| Cn1nc(CCN2CCOCC2)c2ccc(-c3cc(Nc4ccc(C#N)cc4)nc(N4CCOCC4)n3)cc21 [4-({6-[1-methyl-3-(2-morpholin-4-ylethyl)(1H-indazol-6-yl)]-2-morpholin-4-ylpyrimidin-4-yl}amino)benzenecarbonitrile] | 1000 to 5000 nM |
| CNC(=O)c1ccc(Nc2cc(-c3ccc4ncn(C5CC5)c4c3)nc(N3CCOCC3)n2)cc1 [(4-{[6-(1-cyclopropylbenzimidazol-6-yl)-2-morpholin-4-ylpyrimidin-4-yl]amino}phenyl)-N-methylcarboxamide] | < 500 nM |
| Cc1nn(C)c2cc(-c3cc(Nc4ccc(-n5nccn5)cc4)nc(N4CCOCC4)n3)ccc12 [[6-(1,3-dimethyl(1H-indazol-6-yl))-2-morpholin-4-ylpyrimidin-4-yl](4-(1,2,3-triazol-2-yl)phenyl)amine] | < 500 nM |
| Cn1cccc1-c1ccc(Nc2cc(-c3ccc4c(CCN5CCOCC5)nn(C)c4c3)nc(N3CCOCC3)n2)cc1 [{6-[1-methyl-3-(2-morpholin-4-ylethyl)(1H-indazol-6-yl)]-2-morpholin-4-ylpyrimidin-4-yl}[4-(1-methylpyrrol-2-yl)phenyl]amine] | < 500 nM |
| Cc1nn(C)c2cc(-c3cc(Nc4ccc(-c5nnc[nH]5)cc4)nc(N4CCOCC4)n3)cnc12 [(4-(4H-1,2,4-triazol-3-yl)phenyl)[6-(1,3-dimethylpyrazolo[4,5-b]pyridin-6-yl)-2-morpholin-4-ylpyrimidin-4-yl]amine] | < 500 nM |
| Cc1nn(C)c2cc(-c3cc(Nc4ccc(Cl)cc4)nc(N4CCOCC4)n3)cnc12 [[6-(1,3-dimethylpyrazolo[4,5-b]pyridin-6-yl)-2-morpholin-4-ylpyrimidin-4-yl](4-chlorophenyl)amine] | 500 to 1000 nM |
| Cc1nnc(-c2ccc(Nc3cc(-c4ccc5c(C)nn(CCN6CCOCC6)c5c4)nc(N4CCOCC4)n3)cc2)[nH]1 [[4-(5-methyl(4H-1,2,4-triazol-3-yl))phenyl]{6-[3-methyl-1-(2-morpholin-4-ylethyl)(1H-indazol-6-yl)]-2-morpholin-4-ylpyrimidin-4-yl}amine] | < 500 nM |
| Cc1nn(CCCN2CCOCC2)c2cc(-c3cc(Nc4ccc(Cl)cc4)nc(N4CCOCC4)n3)ccc12 [(4-chlorophenyl){6-[3-methyl-1-(3-morpholin-4-ylpropyl)(1H-indazol-6-yl)]-2-morpholin-4-ylpyrimidin-4-yl}amine] | 1000 to 5000 nM |
| CNC(=O)c1ccc(Nc2cc(-c3ccc4ncn(C5CCC5)c4c3)nc(N3CCOCC3)n2)cc1 [(4-{[6-(1-cyclobutylbenzimidazol-6-yl)-2-morpholin-4-ylpyrimidin-4-yl]amino}phenyl)-N-methylcarboxamide] | < 500 nM |
| CC(=O)Nc1ccc(Nc2cc(-c3ccc4ncn(C)c4c3)nc(N3CCOCC3)n2)cc1 [N-(4-{[6-(1-methylbenzimidazol-6-yl)-2-morpholin-4-ylpyrimidin-4-yl]amino}phenyl)acetamide] | 500 to 1000 nM |
| CNC(=O)c1ccc(Nc2cc(-c3ccc4nc(C)n(CC5CC5)c4c3)nc(N3CCOCC3)n2)cc1 [[4-({6-[1-(cyclopropylmethyl)-2-methylbenzimidazol-6-yl]-2-morpholin-4-ylpyrimidin-4-yl}amino)phenyl]-N-methylcarboxamide] | < 500 nM |
| CNC(=O)c1ccc(Nc2cc(-c3ccc4c(C)nn(C)c4c3)nc(N3CCOCC3)n2)cc1 [(4-{[6-(1,3-dimethyl(1H-indazol-6-yl))-2-morpholin-4-ylpyrimidin-4-yl]amino}phenyl)-N-methylcarboxamide] | < 500 nM |
